# Test results as given in patent US4794114A, “Inhibition of interleukin-1 production by monocytes and/or macrophages” (SmithKline Beckman Corporation, priority 1987, dated 1988).
# Where two headings read alike, the source gives them in different places.
# Assays:
# [1] = test system: IL-1 production by human monocytes; test: in vitro IL-1 production by LPS-stimulated human peripheral blood monocytes (EL-4 readout); assay type: cell-based; conditions: for inhibition at 1 µM: 10^-6 M; for inhibition at 0.1 µM: 10^-7 M
# Procedure: The effects of antiinflammatory/antiarthritic drugs of different classes, including Compound 1 on the in vitro production of IL-1 by human monocytes was examined.
# (§1) Bacterial lipopolysaccharide (LPS) was used to induce IL-1 production by human peripheral blood monocytes. IL-1 activity was measured by its ability to stimulate a Interleukin 2 (IL-2) producing cell line (EL-4) to secrete IL-2, in concert with A23187 ionophore, according to the method of Simon et al., J. Immunol. Methods, 84, 85, (1985). Human peripheral blood monocytes were isolated and purified from either fresh blood preparations from volunteer donors, or from blood Bank buffy coats, according to the procedure of Colotta et al., J. Immunol., 132, 936 (1984). 1×10^6 of such monocytes are plated in 24-well plates at a concentration of 2 million/ml per well. The cells were allowed to adhere for 2 hours, after which time non-adherent cells were removed by gentle washing. Test compounds were then added to the cells for 1 hour (hr) before the addition of lipopolysaccharide (10 ng/ml unless otherwise noted), and the cultures were incubated at 37° C. for an additional 24 hours. At the end of the incubation period, culture supernatants were removed and clarified of cells and all debris. Culture supernatants were immediately assayed for IL-1 biological activity as well as prostaglandin and/or leukotriene concentrations by radioimmunoassay.
# ^(a) All compounds, except chloroquine, were dissolved in absolute
# ethanol at 10^-2 M, which was subsequently diluted further in tissue
# assay system at doses tested. Furthermore, test samples were dialyzed
# prior to testing in the IL1 assay.
# In order to elucidate the mechanism by which Compound 1 mediates its anti-inflammatory activity, the ability of this compound and two closely related analog metabolites, (i.e., the analogs of Compound 1 wherein X is S(0)n and n is 1 or 2) to inhibit human IL-1 production in vitro was evaluated according to the method of Example 1. Briefly, 1×10^6 human peripheral blood monocytes were plated in 24-well plates and allowed to adhere for 1 hr at 37° C. The above compounds were added to a final concentration of 10^-5 M to 10^-8 M. The monocytes were stimulated to produce IL-1 with 1 ng/ml LPS after a 1 hr pretreatment of the cells with the respective compounds.
# The inhibitory effect of additional compounds of Formula (I) on the in vitro production of IL-1 production of IL-1 by human monocytes was determined according to the procedure of Examples 1 and 2.
# PGE2 = test: in vitro prostaglandin (PGE2) synthesis by LPS-stimulated human monocytes, RIA; assay type: cell-based
# Procedure: as §1
# ^(c) PGE2 was assayed using an RIA kit.
# monocytes = test: in vitro; assay type: cell-based, human
# Procedure: as §1
# ^(b) At doses at or above 10^-5 M, this compound exerted some
# EL-4/CTLL assay = test: direct effect on IL-1 standard in EL-4/CTLL readout assay; assay type: cell-based
# Procedure: as §1
# Inhibition of IL-1 production by Compound 1 is not due to a carryover effect of the drug on the cells sed in the IL-1 readout assay. […]
# A375 melanoma cells = test: tumoricidal activity of LPS-treated human monocytes in the kill of A375 melanoma cells; assay type: cell-based; conditions: 10^-5 to 10^-8 M
# alpha interferon = alpha interferon (other inducible proteins) production; assay type: cell-based
# [2] = test system: human peripheral blood lymphocytes; test: lectin-stimulated mitogenesis of human peripheral blood lymphocytes; assay type: cell-based
# IL-2 = IL-2 production or response; assay type: cell-based
# [3] = test system: adjuvant-induced arthritis in the rat; test: adjuvant-induced arthritis in the rat: right leg paw edema; assay type: in vivo; conditions: mg/kg: Compound 1 60, indomethacin 2.0, prednisolone 10, methotrexate 0.3, D-penicillamine 50
# Procedure: (§2) Adjuvant-induced arthritis in the rat is a model of systemic inflammation with characteristics similar to rheumatoid arthritis in man. […] This model was employed to assess the effect of Compound 1 in vivo on this elevated IL-1 production. Briefly, rats were injected on day 0 with Freund's complete adjuvant in the right hind leg. Drugs were prepared as a suspension in tragacanth and administered daily per os either prophylactically (days 1 to 16) or therapeutically in a short-term modality (days 14 to 16). In all cases, final administration of drug occurred at 3 hours prior to sacrifice. Spleens were removed from these rats and the adherent cells were assessed for their ability to produce IL-1 in vitro in response to stimulation by LPS.
# (§3) PROPHYLACTIC TREATMENT: Drugs were administered daily p.o. as a suspensio
# (§4) in tragacanth from day 1 to day 16. Final dose given 3 hrs before
# (§5) TREATMENT: Drugs were administered daily p.o. as above from
# (§6) day 14 to day 16. Final dose given 3 hrs before sacrifice.
# (§7) ***P < 0.01 Indomethacin 2.0 mg/kg
# (§8) **P < 0.05 Compound 1 60 mg/kg
# (§9) *P < 0.10 Prednisolone 10 mg/kg
# (§10) D-Penicillamine 50 mg/kg
# splenic adherent cells = test: adjuvant-induced arthritis in the rat: % splenic adherent cells; assay type: in vivo; conditions: mg/kg: Compound 1 60, indomethacin 2.0, prednisolone 10, methotrexate 0.3, D-penicillamine 50
# Procedure: as §2, §3, §4, §5, §6, §7, §8, §9, §10
# [4] = test system: IL-1 production by splenic adherent cells; test: adjuvant-induced arthritis in the rat: IL-1 production by LPS-stimulated splenic adherent cells; assay type: in vivo; conditions: for IL-1 Production (splenic adherent cells), % normal control: mg/kg: Compound 1 60, indomethacin 2.0, prednisolone 10, methotrexate 0.3, D-penicillamine 50
# Procedure: as §2, §3, §4, §5, §6, §7, §8, §9, §10
# [5] = test system: endotoxin shock in C57B1/6 mice; assay type: in vivo, mouse; conditions: mouse, in vivo
# Procedure: Mice are very resistant to the lethal effects of bacterial lipopolysaccharides (LPS). D-Galactosamine (D-GALN) induces a high degree of sensitization to the lethal effects of LPS in mice and other experimental animals. [See, Galanos et al., Proc. Natl. Acad Sci. USA., 76, 5939 (1979)]. In mice, depending on the strain and age, the sensitivity to endotoxin can be increased many thousand-fold.
# A number of preliminary experiments were carried out to establish this model of lethal endotoxin shock.
# [6] = Homo sapiens, Monocyte, wide range of LPS, read-out: inhibition of IL-1 production
# [7] = Homo sapiens, Monocyte, read-out: % Inhibition IL-1
# [8] = prophylactic, daily p.o. days 1-16
# [9] = therapeutic, daily p.o. days 14-16
compound,measurement,setting,value
Fc1ccc(-c2nc3n(c2-c2ccncc2)CCS3)cc1 [Compound 1],dose dependence of IL-1 production inhibition,[1],dose dependent
same,inhibition of IL-1 production,[1],inhibits IL-1 production
same,relative potency against the two analogs,[1]; 1 ng/ml LPS,slightly more potent than the two analogs tested
same,IC50,"[1]; Homo sapiens, Monocyte, 1 ng/ml LPS, 1 hr pretreatment",250 nM
same,inhibition at 10 µM,"[1]; Homo sapiens, Monocyte, 10^-5 M, read-out: % Inhibition IL-1",99%
same,inhibition at 1 µM,[1]; [6],~80%
same,inhibition at 1 µM,"[1]; Homo sapiens, Monocyte, Table 3, read-out: % Inhibition @ 10^-6 M",70%
same,inhibition at 1 µM,[1]; [7],96%
same,inhibition at 0.1 µM,[1]; [6],~40%
same,inhibition at 0.1 µM,[1]; [7],88%
same,inhibition of IL-1 production,[1]; submicromolar range (10^-7 M),greater than 80%
same,inhibition of IL-1 production induced by a variety of activators,[1]; variety of activators,inhibits IL-1 production induced by a variety of activators
same,inhibition at 10 µM,"PGE2; Homo sapiens, Monocyte, 10^-5 M, read-out: % Inhibition PGE2",99%
same,inhibition at 1 µM,"PGE2; Homo sapiens, Monocyte, 10^-6 M, read-out: % Inhibition PGE2",94%
same,inhibition at 0.1 µM,"PGE2; Homo sapiens, Monocyte, 10^-7 M, read-out: % Inhibition PGE2",79%
same,inhibition of prostaglandin synthesis,PGE2; submicromolar range (10^-7 M),greater than 80%
same,nonspecific toxic effect on other functions of activated monocytes,monocytes,does not exert a nonspecific toxic effect on other functions of activated monocytes
same,effect on the IL-1 assay system,EL-4/CTLL assay; 10^-5 or higher,had an effect on the assay system
same,direct effect on the IL-1 assay,EL-4/CTLL assay; lower doses / doses tested,no direct effect on the IL-1 assay
same,effect on monocyte tumoricidal activity,A375 melanoma cells,did not effect that biological activity
same,effect on other inducible proteins such as alpha interferon,alpha interferon,not effected
same,inhibition of lectin-stimulated mitogenesis,[2],does not inhibit lectin-stimulated mitogenesis
same,inhibition of IL-2 production,IL-2; IL-2 production,does not inhibit either IL-2 production or response
same,inhibition of IL-2 response,IL-2; IL-2 response,does not inhibit either IL-2 production or response
same,"Right leg paw edema, % normal control",[3]; [8],134 ± 9 % normal control
same,"Right leg paw edema, % normal control",[3]; [9],159 ± 7 % normal control
same,"% Adherent Cells (splenic), % normal control",splenic adherent cells; [8],98 ± 29 % normal control
same,"% Adherent Cells (splenic), % normal control",splenic adherent cells; [9],216 ± 137 % normal control
same,decrease in IL-1 production,[4]; prophylactic administration,more dramatic decrease in IL-1 production than indomethacin which resulted in nearly complete normalization of this parameter
same,"IL-1 Production (splenic adherent cells), % normal control",[4]; [8],139 ± 28 % normal control
same,"IL-1 Production (splenic adherent cells), % normal control",[4]; [9],392 ± 129 % normal control
same,effect in adjuvant arthritic rats,"[4]; therapeutic, short-term treatment",no effect
same,protection from lethal effects of LPS/GALN,[5],protected the animals from the lethal effects of LPS/GALN
same,immunosuppressive effect,immunosuppressive effect,not immunosuppressive
